# pIC50: −log10 of the molar value.
# Molecular target: T1, human TRPV3 (Homo sapiens, UniProt Q8NET8)
# T1 construct: expressed in transfected cells; host or cells: HEK293
# T1 sequence (Q8NET8 1-790): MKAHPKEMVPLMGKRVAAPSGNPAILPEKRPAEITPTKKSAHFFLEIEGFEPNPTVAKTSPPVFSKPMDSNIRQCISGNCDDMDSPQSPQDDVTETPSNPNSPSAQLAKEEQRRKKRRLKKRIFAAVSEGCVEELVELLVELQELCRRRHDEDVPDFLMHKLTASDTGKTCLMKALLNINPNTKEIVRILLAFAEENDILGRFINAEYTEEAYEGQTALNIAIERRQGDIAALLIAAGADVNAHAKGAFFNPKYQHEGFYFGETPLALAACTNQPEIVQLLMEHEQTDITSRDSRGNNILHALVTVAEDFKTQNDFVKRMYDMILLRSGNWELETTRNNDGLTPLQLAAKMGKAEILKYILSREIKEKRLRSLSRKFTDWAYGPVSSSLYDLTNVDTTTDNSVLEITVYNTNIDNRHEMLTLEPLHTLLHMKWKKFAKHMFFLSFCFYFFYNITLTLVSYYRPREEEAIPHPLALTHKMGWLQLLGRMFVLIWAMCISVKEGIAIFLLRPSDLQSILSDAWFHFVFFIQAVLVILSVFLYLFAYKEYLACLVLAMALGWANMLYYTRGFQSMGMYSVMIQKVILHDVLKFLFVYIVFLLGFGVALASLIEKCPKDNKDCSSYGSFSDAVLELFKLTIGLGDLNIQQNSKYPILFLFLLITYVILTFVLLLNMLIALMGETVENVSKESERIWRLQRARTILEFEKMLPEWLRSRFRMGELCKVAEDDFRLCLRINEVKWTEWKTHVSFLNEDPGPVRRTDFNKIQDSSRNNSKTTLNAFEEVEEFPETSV
# Assay: Calcium flux assay (FLIPR TETRA), recombinant HEK293 cells expressing TRPV3, 2-APB response
# Assay type: cell-based
# Conditions: 2-APB at its EC80
# Summary of the method: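 Response is the peak fluorescence increase over baseline, as a percentage of the compound-free response to 2-APB at EC80. Calcium flux recorded on FLIPR TETRA in stable human or mouse TRPV3 HEK293 cells after 90–120 min Calcium-4 dye loading.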
structure (smiles),measurement,value
"C#Cc1sc(NC(=O)c2c(OC)ncnc2OC)nc1C(F)(F)F [Example 11, N-[5-ethynyl-4-(trifluoromethyl)-1,3-thiazol-2-yl]-4,6-dimethoxypyrimidine-5-carboxamide]",pIC50,> 7.30
"COc1ncnc(OC)c1C(=O)Nc1nc(C(F)(F)F)c(-c2cnc(C3CC3)nc2)s1 [Example 203, N-[5-(2-cyclopropylpyrimidin-5-yl)-4-(trifluoromethyl)-1,3-thiazol-2-yl]-4,6-dimethoxypyrimidine-5-carboxamide]",pIC50,> 7.30
"COc1ncnc(OC)c1C(=O)Nc1nc(C(F)(F)F)c(-c2ccc(C(C)(C)C#N)cc2)s1 [Example 173, N-{5-[4-(2-cyanopropan-2-yl)phenyl]-4-(trifluoromethyl)-1,3-thiazol-2-yl}-4,6-dimethoxypyrimidine-5-carboxamide]",pIC50,6.30 to 7.00
"COc1ncnc(OC)c1C(=O)Nc1nc(C(F)(F)F)c(S(=O)(=O)c2ccc(C)cc2)s1 [Example 110, 4,6-dimethoxy-N-[5-(p-tolylsulfonyl)-4-(trifluoromethyl)-1,3-thiazol-2-yl]pyrimidine-5-carboxamide]",pIC50,6.30 to 7.00
"COc1ncnc(OC)c1C(=O)Nc1nc(C(F)(F)F)c(C(O)c2ccc(F)cn2)s1 (stereo not drawn) [Example 130, N-{5-[(5-fluoropyridin-2-yl)(hydroxy)methyl]-4-(trifluoromethyl)-1,3-thiazol-2-yl}-4,6-dimethoxypyrimidine-5-carboxamide]",pIC50,6.30 to 7.00
"COc1ncnc(OC)c1C(=O)Nc1nc(C(F)(F)F)c(C(=O)C(C)(C)C)s1 [Example 124, N-[5-(2,2-dimethylpropanoyl)-4-(trifluoromethyl)-1,3-thiazol-2-yl]-4,6-dimethoxypyrimidine-5-carboxamide]",pIC50,> 7.30
"COc1ncnc(OC)c1C(=O)Nc1nc(C(F)(F)F)c(-c2ccc(N3CCOCC3)nc2)s1 [Example 23, 4,6-dimethoxy-N-{5-[6-(morpholin-4-yl)pyridin-3-yl]-4-(trifluoromethyl)-1,3-thiazol-2-yl}pyrimidine-5-carboxamide]",pIC50,6.30 to 7.00
"COc1ncnc(OC)c1C(=O)Nc1nc(C(F)(F)F)c(-c2cnn(C3CC3)c2)s1 [Example 168, N-[5-(1-cyclopropyl-1H-pyrazol-4-yl)-4-(trifluoromethyl)-1,3-thiazol-2-yl]-4,6-dimethoxypyrimidine-5-carboxamide]",pIC50,7.00 to 7.30
"COc1ncnc(OC)c1C(=O)Nc1nc(C(F)(F)F)c(CN(C)CC(C)C)s1 [Example 54, 4,6-dimethoxy-N-[5-{[methyl(2-methylpropyl)amino]methyl}-4-(trifluoromethyl)-1,3-thiazol-2-yl]pyrimidine-5-carboxamide]",pIC50,> 7.30
"COc1ncnc(OC)c1C(=O)Nc1nc(-c2ccc(OC(F)(F)F)cc2)c(C(C)O)s1 (stereo not drawn) [Example 82, N-{5-(1-hydroxyethyl)-4-[4-(trifluoromethoxy)phenyl]-1,3-thiazol-2-yl}-4,6-dimethoxypyrimidine-5-carboxamide]",pIC50,6.30 to 7.00
"COc1ncnc(OC)c1C(=O)Nc1nc(C(F)(F)F)c(C2CC2)s1 [Example 37, N-[5-cyclopropyl-4-(trifluoromethyl)-1,3-thiazol-2-yl]-4,6-dimethoxypyrimidine-5-carboxamide]",pIC50,> 7.30
"COc1ncnc(OC)c1C(=O)Nc1nc(C(F)(F)F)c(-c2cnc(N3CCOCC3)c(C#N)c2)s1 [Example 204, N-{5-[5-cyano-6-(morpholin-4-yl)pyridin-3-yl]-4-(trifluoromethyl)-1,3-thiazol-2-yl}-4,6-dimethoxypyrimidine-5-carboxamide]",pIC50,> 7.30
"COc1ncnc(OC)c1C(=O)Nc1nc(C(F)(F)F)c(-c2cccnc2N2CCOCC2)s1 [Example 185, 4,6-dimethoxy-N-{5-[2-(morpholin-4-yl)pyridin-3-yl]-4-(trifluoromethyl)-1,3-thiazol-2-yl}pyrimidine-5-carboxamide]",pIC50,> 7.30
"COc1ncnc(OC)c1C(=O)Nc1nc(-c2ccc(C(F)(F)F)cn2)c(C=O)s1 [Example 76, N-{5-formyl-4-[5-(trifluoromethyl)pyridin-2-yl]-1,3-thiazol-2-yl}-4,6-dimethoxypyrimidine-5-carboxamide]",pIC50,6.30 to 7.00
"CCOc1ncnc(OC)c1C(=O)Nc1nc(C(F)(F)F)c(CC)s1 [Example 70, 4-ethoxy-N-[5-ethyl-4-(trifluoromethyl)-1,3-thiazol-2-yl]-6-methoxypyrimidine-5-carboxamide]",pIC50,> 7.30
"COc1ncnc(OC)c1C(=O)Nc1nc(-c2ccc(C(F)F)cn2)cs1 [Example 94, N-{4-[5-(difluoromethyl)pyridin-2-yl]-1,3-thiazol-2-yl}-4,6-dimethoxypyrimidine-5-carboxamide]",pIC50,6.30 to 7.00
"COc1ncnc(OC)c1C(=O)Nc1nc(C(F)(F)F)c(C(C)(O)c2ccccn2)s1 (stereo not drawn) [Example 129, N-{5-[1-hydroxy-1-(pyridin-2-yl)ethyl]-4-(trifluoromethyl)-1,3-thiazol-2-yl}-4,6-dimethoxypyrimidine-5-carboxamide]",pIC50,< 6.00
"CCOC(=O)c1sc(NC(=O)c2c(OC)ncnc2OC)nc1-c1ccc(C(F)(F)F)cn1 [Example 75, ethyl 2-{[(4,6-dimethoxypyrimidin-5-yl)carbonyl]amino}-4-[5-(trifluoromethyl)pyridin-2-yl]-1,3-thiazole-5-carboxylate]",pIC50,6.30 to 7.00
"COc1ncnc(OC)c1C(=O)Nc1nc(-c2ccc(C(F)(F)F)cn2)c(/C(C)=N/O)s1 [Example 88, N-{5-[(1E)-N-hydroxyethanimidoyl]-4-[5-(trifluoromethyl)pyridin-2-yl]-1,3-thiazol-2-yl}-4,6-dimethoxypyrimidine-5-carboxamide]",pIC50,7.00 to 7.30
"COc1ncnc(OC)c1C(=O)Nc1nc(C(F)(F)F)c(CCC(C)(C)O)s1 [Example 20, N-[5-(3-hydroxy-3-methylbutyl)-4-(trifluoromethyl)-1,3-thiazol-2-yl]-4,6-dimethoxypyrimidine-5-carboxamide]",pIC50,6.00 to 6.30
"COc1ncnc(OC)c1C(=O)Nc1nc(C(F)(F)F)c(-c2ccc(OCC(F)(F)F)nc2)s1 [Example 194, 4,6-dimethoxy-N-{5-[6-(2,2,2-trifluoroethoxy)pyridin-3-yl]-4-(trifluoromethyl)-1,3-thiazol-2-yl}pyrimidine-5-carboxamide]",pIC50,6.30 to 7.00
"CCCc1sc(NC(=O)c2c(OC)ncnc2OC)nc1C(F)(F)F [Example 34, 4,6-dimethoxy-N-[5-propyl-4-(trifluoromethyl)-1,3-thiazol-2-yl]pyrimidine-5-carboxamide]",pIC50,> 7.30
"COc1ncnc(OC)c1C(=O)Nc1nc(C(F)(F)F)c(-c2ccc(C3(C#N)CC3)cn2)s1 [Example 157, N-{5-[5-(1-cyanocyclopropyl)pyridin-2-yl]-4-(trifluoromethyl)-1,3-thiazol-2-yl}-4,6-dimethoxypyrimidine-5-carboxamide]",pIC50,7.00 to 7.30
"COc1ncnc(OC)c1C(=O)Nc1nc(C(F)(F)F)c(-c2ccc(Cl)cn2)s1 [Example 46, N-[5-(5-chloropyridin-2-yl)-4-(trifluoromethyl)-1,3-thiazol-2-yl]-4,6-dimethoxypyrimidine-5-carboxamide]",pIC50,> 7.30
"COc1ncnc(OC)c1C(=O)Nc1nc(-c2ccc(C(F)(F)F)cn2)c(CN2CCOCC2)s1 [Example 77, 4,6-dimethoxy-N-{5-(morpholin-4-ylmethyl)-4-[5-(trifluoromethyl)pyridin-2-yl]-1,3-thiazol-2-yl}pyrimidine-5-carboxamide]",pIC50,> 7.30
"COc1ncnc(OC)c1C(=O)Nc1nc(C(F)(F)F)c(CN2CCCC2)s1 [Example 49, 4,6-dimethoxy-N-[5-(pyrrolidin-1-ylmethyl)-4-(trifluoromethyl)-1,3-thiazol-2-yl]pyrimidine-5-carboxamide]",pIC50,6.00 to 6.30
"COc1ncnc(OC)c1C(=O)Nc1nc(C(F)(F)F)c(C2OCCCO2)s1 [Example 139, N-[5-(1,3-dioxan-2-yl)-4-(trifluoromethyl)-1,3-thiazol-2-yl]-4,6-dimethoxypyrimidine-5-carboxamide]",pIC50,6.30 to 7.00
"COc1ncnc(OC)c1C(=O)Nc1nc(C(F)(F)F)c(-c2cnccn2)s1 [Example 28, 4,6-dimethoxy-N-[5-(pyrazin-2-yl)-4-(trifluoromethyl)-1,3-thiazol-2-yl]pyrimidine-5-carboxamide]",pIC50,6.00 to 6.30
"COc1ncnc(OC)c1C(=O)Nc1nc(C(F)(F)F)c(/C(=N/O)c2ccccc2)s1 [Example 126, N-{5-[(E)-(hydroxyimino)(phenyl)methyl]-4-(trifluoromethyl)-1,3-thiazol-2-yl}-4,6-dimethoxypyrimidine-5-carboxamide]",pIC50,> 7.30
"COc1ncnc(OC)c1C(=O)Nc1nc(C(F)(F)F)c(C2CCOC2)s1 (stereo not drawn) [Example 146, 4,6-dimethoxy-N-[5-(tetrahydrofuran-3-yl)-4-(trifluoromethyl)-1,3-thiazol-2-yl]pyrimidine-5-carboxamide]",pIC50,6.30 to 7.00
